Experimental data as given in the supplement of paper PMC13380429.

Columns and labels:
Details in all cases: 72 h
[1] = test system: Calu-3; assay: cell viability relative to DMSO; higher = less toxic
[2] = test system: Caco-2; assay: as above
[3] = test system: HepG2; assay: as above
[4] = test system: Vero E6; assay: as above
[5] = test system: U2OS; assay: as above
[6] = test system: Calu-3; assay: relative viability EC50 (midpoint between 100% and the lowest measured viability); higher = less toxic
[7] = test system: Caco-2; assay: as above
[8] = test system: HepG2; assay: as above
[9] = test system: Vero E6; assay: as above
[10] = test system: U2OS; assay: as above
[11] = test system: Calu-3; assay: drug sensitivity score (DSS) for viability; higher = more toxic; extreme values may be limits of the assay
[12] = test system: Caco-2; assay: as above
[13] = test system: HepG2; assay: as above
[14] = test system: Vero E6; assay: as above
[15] = test system: U2OS; assay: as above

Structure (SMILES) | cell viability ([1]; 1 nM) [%] | cell viability ([1]; 10 nM) [%] | cell viability ([1]; 100 nM) [%] | cell viability ([1]; 1000 nM) [%] | cell viability ([1]; 10000 nM) [%] | cell viability ([2]; 1 nM) [%] | cell viability ([2]; 10 nM) [%] | cell viability ([2]; 100 nM) [%] | cell viability ([2]; 1000 nM) [%] | cell viability ([2]; 10000 nM) [%] | cell viability ([3]; 1 nM) [%] | cell viability ([3]; 10 nM) [%] | cell viability ([3]; 100 nM) [%] | cell viability ([3]; 1000 nM) [%] | cell viability ([3]; 10000 nM) [%] | cell viability ([4]; 1 nM) [%] | cell viability ([4]; 10 nM) [%] | cell viability ([4]; 100 nM) [%] | cell viability ([4]; 1000 nM) [%] | cell viability ([4]; 10000 nM) [%] | cell viability ([5]; 1 nM) [%] | cell viability ([5]; 10 nM) [%] | cell viability ([5]; 100 nM) [%] | cell viability ([5]; 1000 nM) [%] | cell viability ([5]; 10000 nM) [%] | relative viability EC50 [6] [µM] | relative viability EC50 [7] [µM] | relative viability EC50 [8] [µM] | relative viability EC50 [9] [µM] | relative viability EC50 [10] [µM] | drug sensitivity score [11] | drug sensitivity score [12] | drug sensitivity score [13] | drug sensitivity score [14] | drug sensitivity score [15]
Cc1c(C(=O)NN2CCCCC2)nn(-c2ccc(Cl)cc2Cl)c1-c1ccc(Cl)cc1 [rimonabant] | 101 | 93.6 | 89.1 | 96.8 | 99.2 | 98.7 | 91.3 | 97.7 | 90.5 | 81.1 | 97.6 | 94.1 | 105 | 103 | 88.3 | 92.4 | 95 | 88 | 93.5 | 101 | 95.6 | 95.8 | 98.1 | 95.4 | 92.7 | > 10 | > 10 | > 10 | > 10 | > 10 | 0 | 0.8 | 0 | 0 | 0
N=C(N)N/N=C/c1c(Cl)cccc1Cl [guanaben-acetate] | 91.7 | 94.2 | 91 | 99.7 | 92.1 | 94.3 | 95.8 | 87.3 | 95.4 | 90.7 | 98.1 | 102 | 102 | 93.9 | 101 | 95.3 | 102 | 100 | 97.5 | 97.7 | 96.9 | 96.2 | 94.6 | 97.7 | 91.5 | > 10 | > 10 | > 10 | > 10 | > 10 | 0 | 0 | 0 | 0 | 0
c1ccc(C2CC2)c(OCC2=NCCN2)c1 [cirazoline] | 108 | 97.2 | 99.3 | 107 | 98.6 | 97.1 | 95 | 102 | 90.4 | 113 | 95.5 | 97.6 | 94.8 | 107 | 110 | 93.7 | 97.2 | 95.8 | 106 | 107 | 94.2 | 95.7 | 99.5 | 97.6 | 98.1 | > 10 | > 10 | > 10 | > 10 | > 10 | 0 | 0 | 0 | 0 | 0
O=C1CS[C@@H](c2ccccc2Cl)c2cc(Cl)ccc2N1 (racemic) | 94.5 | 100 | 96.7 | 100 | 105 | 92.3 | 101 | 92.2 | 98.6 | 90.1 | 100 | 98.7 | 96.4 | 110 | 102 | 96.6 | 97.6 | 99.1 | 97.8 | 104 | 106 | 104 | 94.4 | 101 | 102 | > 10 | > 10 | > 10 | > 10 | > 10 | 0 | 0 | 0 | 0 | 0
COc1c(C)cnc(Cn2cnc3c(Cl)nc(N)nc32)c1C [BIIB021] | 102 | 109 | 105 | 49.4 | 39.4 | 91 | 101 | 92.8 | 65.8 | 39.5 | 94 | 100 | 60.8 | 1.5 | 0.6 | 101 | 104 | 103 | 51.8 | 36.7 | 99.4 | 99.4 | 93.3 | 27.7 | 4.4 | 0.538 | 0.746 | 0.12 | 0.633 | 0.495 | 9.3 | 7.5 | 23.1 | 9.1 | 14.5
